Data set [1] is described as follows: Aqueous solubility of compound after 24 hrs by HPLC analysis. It counts as physicochemical. The note with it: for solubility at 24 h: aqueous; for solubility: buffer, 24 h.
Data set [2] can be described thus: Elimination rate constant in Wistar rat plasma at 3 uM measured up to 180 mins by LC-MS/MS analysis. The format is ADME, cell-free.
The nature of data set [3]: Half life in Wistar rat plasma at 3 uM measured up to 180 mins by LC-MS/MS analysis. It counts as ADME, cell-free.
Data set [4] in a line: Elimination rate constant in Wistar rat liver microsomes at 1 uM measured up to 120 mins by LC-MS/MS analysis. It counts as ADME, Microsome. (In general: Liver microsomes are vesicles of endoplasmic reticulum, rich in cytochrome P450 enzymes.)
The nature of data set [5]: Half life in Wistar rat liver microsomes at 1 uM measured up to 120 mins by LC-MS/MS analysis. The format is ADME, Microsome. To be noted: 2 h.
The subject of data set [6] is Mus musculus. Description: Anti-inflammatory activity against DSS-induced ulcerative colitis C57BL/6 mouse model assessed as colon length at 100 mg/kg, ig administered via gavage once a day for 14 consecutive days starting from second day post DSS challenge (reference value: 5.93 +/- 0.52 cm). It counts as functional.
The nature of data set [7]: Metabolic stability in Wistar rat plasma assessed as compound remaining at 3 uM after 5 mins by LC-MS/MS analysis relative to control. The format is ADME, cell-free. The note with it: read-out: Stability.
The nature of data set [8]: Metabolic stability in Wistar rat plasma assessed as compound remaining at 3 uM after 10 mins by LC-MS/MS analysis relative to control. The format is ADME, cell-free. The note with it: read-out: Stability.
Data set [9] in a line: Metabolic stability in Wistar rat plasma assessed as compound remaining at 3 uM after 20 mins by LC-MS/MS analysis relative to control. The format is ADME, cell-free. To be noted: read-out: Stability.
Data set [10] is described as follows: Metabolic stability in Wistar rat plasma assessed as compound remaining at 3 uM after 40 mins by LC-MS/MS analysis relative to control. The note with it: read-out: Stability. It counts as ADME, cell-free.
Data set [11] in a line: Metabolic stability in Wistar rat plasma assessed as compound remaining at 3 uM after 60 mins by LC-MS/MS analysis relative to control. It counts as ADME, cell-free. To be noted: read-out: Stability.
A short description of data set [12]: Metabolic stability in Wistar rat plasma assessed as compound remaining at 3 uM after 90 mins by LC-MS/MS analysis relative to control. It counts as ADME, cell-free. To be noted: read-out: Stability.
The nature of data set [13]: Metabolic stability in Wistar rat plasma assessed as compound remaining at 3 uM after 120 mins by LC-MS/MS analysis relative to control. To be noted: read-out: Stability. The format is ADME, cell-free.
A short description of data set [14]: Metabolic stability in Wistar rat plasma assessed as compound remaining at 3 uM after 180 mins by LC-MS/MS analysis relative to control. The note with it: read-out: Stability. It counts as ADME, cell-free.
A short description of data set [15]: Metabolic stability in Wistar rat liver microsomes assessed as compound remaining at 1 uM after 5 mins by LC-MS/MS analysis relative to control. The note with it: read-out: Stability. The format is ADME, Microsome.
Data set [16] in a line: Metabolic stability in Wistar rat liver microsomes assessed as compound remaining at 1 uM after 10 mins by LC-MS/MS analysis relative to control. To be noted: read-out: Stability. The format is ADME, Microsome.
Data set [17] in a line: Metabolic stability in Wistar rat liver microsomes assessed as compound remaining at 1 uM after 20 mins by LC-MS/MS analysis relative to control. To be noted: read-out: Stability. It counts as ADME, Microsome.
A short description of data set [18]: Metabolic stability in Wistar rat liver microsomes assessed as compound remaining at 1 uM after 30 mins by LC-MS/MS analysis relative to control. It counts as ADME, Microsome. To be noted: read-out: Stability.
Data set [19] is described as follows: Metabolic stability in Wistar rat liver microsomes assessed as compound remaining at 1 uM after 40 mins by LC-MS/MS analysis relative to control. The format is ADME, Microsome. To be noted: read-out: Stability.
Data set [20] can be described thus: Metabolic stability in Wistar rat liver microsomes assessed as compound remaining at 1 uM after 60 mins by LC-MS/MS analysis relative to control. It counts as ADME, Microsome. To be noted: read-out: Stability.
Data set [21] is described as follows: Metabolic stability in Wistar rat liver microsomes assessed as compound remaining at 1 uM after 90 mins by LC-MS/MS analysis relative to control. The format is ADME, Microsome. To be noted: read-out: Stability.
Data set [22] in a line: Metabolic stability in Wistar rat liver microsomes assessed as compound remaining at 1 uM after 120 mins by LC-MS/MS analysis relative to control. The note with it: read-out: Stability. It counts as ADME, Microsome.
In data set [23] the test system is Mus musculus. Description: Anti-inflammatory activity against DSS-induced ulcerative colitis C57BL/6 mouse model assessed as increase in colon length administered via gavage once a day for 14 consecutive days starting from second day post DSS challenge. The format is functional, organism-based.
In data set [24] the test system is Mus musculus. Description: Anti-inflammatory activity against DSS-induced ulcerative colitis C57BL/6 mouse model assessed as colon length at 100 mg/kg, ig administered for 7 consecutive days followed by 7 days treatment with drinking water followed by three additional DSS treatment cycles (reference value: 5.93 +/- 0.52 cm). The format is functional.
Data set [25] in a line: Ratio of compound t1/2 to myricetin t1/2 in Wistar rat plasma at 3 uM measured up to 180 mins by LC-MS/MS analysis. The note with it: 3 h. The format is ADME, cell-free.
In data set [26] the test system is Mus musculus. Description: Anti-inflammatory activity against DSS-induced ulcerative colitis C57BL/6 mouse model assessed as colon length at 50 mg/kg, ig administered via gavage once a day for 14 consecutive days starting from second day post DSS challenge (reference value: 5.93 to 7.1 cm). It counts as functional.
Data set [27] concerns Mus musculus. Description: Anti-inflammatory activity against DSS-induced ulcerative colitis C57BL/6 mouse model assessed as mild cellular infiltration in colon at 50 mg/kg, ig administered via gavage once a day for 14 consecutive days starting from second day post DSS challenge by H and E staining based analysis. It counts as functional, organism-based.
The subject of data set [28] is Mus musculus. Description: Anti-inflammatory activity against DSS-induced ulcerative colitis C57BL/6 mouse model assessed as decrease in inflammatory score at 50 mg/kg, ig administered via gavage once a day for 14 consecutive days starting from second day post DSS challenge. It counts as functional, organism-based.
The nature of data set [29]: Toxicity in po dosed mouse. The note with it: in vivo. It counts as organism-based.
Data set [30] in a line: Ratio of compound t1/2 to myricetin t1/2 in Wistar rat liver microsomes at 1 uM measured up to 120 mins by LC-MS/MS analysis. The format is ADME, Microsome. The note with it: 2 h.
Data set [31] is described as follows: Ratio of compound solubility to myricetin solubility in water after 24 hrs by HPLC analysis. To be noted: buffer. The format is physicochemical.

The structures appear in SMILES notation. In brackets after ≈: the same amount, converted by molar mass. Activity calls are given as the source filed them. Where only a bound is given, the exact number is not on record here.

In data set [1], `O=c1c(O)c(-c2cc(O)c(O)c(O)c2)oc2cc(O)cc(O)c12` [MYRICETIN] returned a solubility at 24 h of 14 µg/mL (≈ 44 µM). The k el at 3 h, 3 µM in data set [2] was 0.000833 s⁻¹. The compound also had a half-life at 3 µM in data set [3] of 0.234 h. In addition, the k el at 2 h, 1 µM in data set [4] is 0.0005 s⁻¹. This compound also yielded a t1/2 in data set [5] of 0.3397 h. For the same compound, the Activity in data set [6] was found to be 6.55 cm. The remaining at 5 min, 3 µM in [7] was 98.1%. For the same compound, in data set [8], the remaining at 10 min, 3 µM turned out to be 89.2%. Further, the remaining at 20 min, 3 µM in data set [9] came to 62.1%. In addition, in data set [10], the remaining at 40 min, 3 µM was found to be 19%. Besides, in [11], the remaining at 1 h, 3 µM came to 5.81%. Moreover, the remaining at 1.5 h, 3 µM in data set [12] was determined as 0.96%. Also, the remaining at 2 h, 3 µM in data set [13] worked out at 1.23%. The remaining at 3 h, 3 µM in [14] turned out to be 0.53%. For the same compound, the remaining at 5 min, 1 µM in data set [15] is 81.3%. Also, the remaining at 10 min, 1 µM in data set [16] worked out at 55.9%. Further, in [17], the remaining at 20 min, 1 µM is 31.6%. In data set [18], the remaining at 0.5 h, 1 µM came to 18.1%. In addition, in data set [19], the remaining at 40 min, 1 µM is 8.01%. For the same compound, the remaining at 1 h, 1 µM in data set [20] amounted to 4.85%. Moreover, in [21], the remaining at 1.5 h, 1 µM worked out at 3.32%. Moreover, the remaining at 2 h, 1 µM in [22] came to 1.9%.

In data set [1], `CC(=O)OC[C@H]1O[C@@H](O[C@H]2[C@H](OC(C)=O)[C@@H](OC(C)=O)[C@H](Oc3c(-c4cc(OCc5ccccc5)c(OCc5ccccc5)c(OCc5ccccc5)c4)oc4cc(OCc5ccccc5)cc(O)c4c3=O)O[C@@H]2COC(C)=O)[C@H](OC(C)=O)[C@@H](OC(C)=O)[C@H]1OC(C)=O` displayed a solubility of less than 0.1 µg/mL. The result in [23] was Active.

For the compound `Nc1ccc(O)c(C(=O)O)c1` [MESALAMINE], the Activity in data set [24] was 7.15 cm.

Turning to `O=C(Oc1cc(OC(=O)c2ccccc2O)c2c(=O)c(OC(=O)c3ccccc3O)c(-c3cc(OC(=O)c4ccccc4O)c(OC(=O)c4ccccc4O)c(OC(=O)c4ccccc4O)c3)oc2c1)c1ccccc1O`, in [1], the solubility is less than 0.02 µg/mL. The result in data set [23] was Active.

On to `O=C(Oc1c(-c2cc(O)c(O)c(O)c2)oc2cc(O)cc(OC(=O)c3ccccc3O)c2c1=O)c1ccccc1O`, for which, in [1], the solubility was less than 0.1 µg/mL. In addition, the result in [23] was Active.

For `O=c1c(O[C@@H]2O[C@H](CO)[C@@H](O[C@@H]3O[C@H](CO)[C@H](O)[C@H](O)[C@H]3O)[C@H](O)[C@H]2O)c(-c2cc(O)c(O)c(O)c2)oc2cc([O-])cc(O)c12.[Na+]`, the Ratio is 10 in [25], 20 in data set [30] and more than 7000 in data set [31]. The solubility at 24 h in data set [1] was more than 100000 µg/mL. Besides, the k el at 3 h, 3 µM in [2] is 0.000167 s⁻¹. The compound also yielded a half-life at 3 µM in data set [3] of 2.42 h. This compound showed a k el at 2 h, 1 µM in [4] of 0.000167 s⁻¹. Also, the t1/2 in data set [5] came to 6.8098 h. The Activity in data set [26] was 8.11 - 10.6 cm. Moreover, in [27], the result was Active. Moreover, the inhibition entry in data set [28] was “Active”. This compound also showed an LD50 in data set [29] of more than 5000 mg/kg. Besides, the remaining at 5 min, 3 µM in data set [7] is 99.7%. The remaining at 10 min, 3 µM in [8] turned out to be 88.9%. Besides, in data set [9], the remaining at 20 min, 3 µM stood at 79.8%. Further, the remaining at 40 min, 3 µM in data set [10] was 82.4%. In data set [11], the remaining at 1 h, 3 µM came to 67.7%. In addition, in data set [12], the remaining at 1.5 h, 3 µM was 67.8%. Also, the remaining at 2 h, 3 µM in data set [13] turned out to be 55%. For the same compound, the remaining at 3 h, 3 µM in data set [14] was 58.4%. Further, in data set [15], the remaining at 5 min, 1 µM is 96.6%. For the same compound, in data set [16], the remaining at 10 min, 1 µM is 89.7%. The remaining at 20 min, 1 µM in data set [17] worked out at 82.5%. Besides, the remaining at 0.5 h, 1 µM in [18] was found to be 87.2%. In addition, in data set [19], the remaining at 40 min, 1 µM worked out at 87.5%. Moreover, the remaining at 1 h, 1 µM in [20] came to 83.5%. Also, in data set [21], the remaining at 1.5 h, 1 µM was determined as 78.1%. For the same compound, the remaining at 2 h, 1 µM in data set [22] was 76.1%.

For `CC(=O)OC[C@H]1O[C@@H](O[C@H]2[C@H](OC(C)=O)[C@@H](OC(C)=O)[C@H](Oc3c(-c4cc(O)c(O)c(O)c4)oc4cc(O)cc(O)c4c3=O)O[C@@H]2COC(C)=O)[C@H](OC(C)=O)[C@@H](OC(C)=O)[C@H]1OC(C)=O`, the concentration in solution in data set [1] (solubility at 24 h) came to 1390 µg/mL (≈ 1480 µM). The result in [23] was Active.

What is called solubility is the dissolved amount per volume that the medium holds. Read a low solubility as a poorly soluble substance. The half-life is the time needed for the level to fall by half in the phase considered. Low readings indicate rapid decline, high ones slow decline. For orientation: LD50 means the dose at which mortality reaches 50%. A lower LD50 goes with a more toxic substance.
